Test results reported in patent publication US20220241409A1, “WATER SOLUBLE ADJUVANT AND COMPOSITION CONTAINING SAME” (Sumitomo Dainippon Pharma Co., Ltd., priority 2019, published 2022).

Columns and labels:
[1] = tested on: Antigen-Specific CTL; test: Immune response of antigen-specific CTL for peptide and tumor cell, vaccine b (Test 12); type: in vivo, mouse
Description: Vaccine b prepared like Test 8 was injected to a HLA-A*02:01 transgenic mouse intradermally at the tail base area in an amount for administering 300 μg of Compound of formula 4 per body and 225 μg of Peptide SEQ ID No. 3 per body. Or, in the step of preparing vaccine b, the compound prepared in Example 2 was added to the diluted peptide solution to prepare a vaccine, and the prepared vaccine was injected to a HLA-A*02:01 transgenic mouse intradermally at the tail base area in an amount for administering 300 μg of Compound of formula 4 per body, 225 μg of Peptide SEQ ID No. 3 per body, and 325 ng of the compound prepared in Example 2 per body. One week later, the mice were sacrificed with CO2 gas, and then spleens removed from the mice. A splenocyte suspension was prepared from the spleens with CTM. Like Test 6, Peptide (SEQ ID No. 1) was added to the splenocyte-containing ELISPOT plate, and the plate was incubated overnight at 37° C. under an atmosphere of 5% CO2 to re-stimulate the peptide in vitro. Then, after removal of the supernatant from the wells, stained spots on the ELISPOT plate were counted. […] The concentration of mouse IFN-γ in the culture supernatant was measured with an ELISA kit.

[2] = tested on: HLA-A*02:01 transgenic mouse; test: In vivo adjuvant activity, CTL induction with vaccine c, IFNγ ELISPOT (Test 9); settings: 32.5 ng per body added to vaccine c versus no compound; twice, one week interval
Description: The in vivo adjuvant activity of the compounds prepared in Example 3 was evaluated in the following procedure. To a vaccine comprising Peptide SEQ ID No. 1 prepared in Reference example 1 with a preliminarily-emulsified composition (hereinafter, referred to as “vaccine c”) was added the compound prepared in Example 3 to prepare a vaccine. The vaccine was administered to a HLA-A*02:01 transgenic mouse, and the adjuvant activity of the vaccine was evaluated by the method of testing antigen-specific CTL induction.
Specifically, Peptide SEQ ID No. 1 was dissolved in DMSO, and then diluted with water for injection to concentrations of Peptide SEQ ID No. 1 of 2 mg/mL. The diluted peptide solution was mixed and emulsified with an equal volume of a preliminarily-emulsified composition to prepare vaccine c. Vaccine c was injected to mice intradermally at the tail base area in an amount for administering 200 μg of Peptide SEQ ID No. 1 per body. Or, in the step of preparing vaccine c, the compound prepared in Example 3 was added to the diluted peptide solution to prepare a vaccine, and the prepared vaccine was injected to mice intradermally at the tail base area in an amount for administering 200 μg of Peptide SEQ ID No. 1 per body, and 32.5 ng of the compound prepared in Example 3 per body. […] Then, after removal of the supernatant from the wells, stained spots on the ELISPOT plate were counted.

[3] = tested on: HLA-A*02:01/HLA-DRB1*01:01 transgenic mouse; test: In vivo adjuvant activity, helper T-cell induction with vaccine d, IFNγ ELISPOT (Test 10); settings: 3.25 ng per body added to vaccine d versus no compound; twice, one week interval
Description: The in vivo adjuvant activity of the compound prepared in Example 3 was evaluated in the following procedure. To a cocktail vaccine comprising Compound SEQ ID No. 1 prepared in Reference example 1 and Peptide SEQ ID No. 4 prepared in Reference example 4 with a preliminarily-emulsified composition (hereinafter, referred to as “vaccine d”) was added the compound prepared in Example 3 to prepare a vaccine. The vaccine was administered to a HLA-A*02:01/HLA-DRB1*01:01 transgenic mouse (C57BL/6CrHLA-A2.1DR1), and the adjuvant activity of the vaccine was evaluated by the method of testing antigen-specific helper T-cell induction. Peptide SEQ ID No. 4 is a helper peptide derived from HLA-DRB1*01:01-restricted WT1 protein.
Specifically, Peptide SEQ ID No. 1 and Peptide SEQ ID No. 4 were dissolved in DMSO, and then diluted with water for injection to concentrations of Peptide SEQ ID No. 1 of 0.9 mg/mL and Peptide SEQ ID No. 4 of 1.8 mg/mL. The diluted peptide solution was mixed and emulsified with an equal volume of a preliminarily-emulsified composition to prepare vaccine d. Vaccine d was injected to mice intradermally at the tail base area in an amount for administering 180 μg of Peptide SEQ ID No. 1 per body and 360 μg of Peptide SEQ ID No. 4 per body. […] Then, after removal of the supernatant from the wells, stained spots on the ELISPOT plate were counted.

Compound	CTLs specific to Peptide (SEQ ID No. 1) in splenocyte, relative to vaccine b without compound ([1]; IFN-γ ELISPOT, 325 ng per body in vaccine b, one week later)	amount of IFN-γ produced from the CTL, relative to vaccine b without compound ([1]; about three days culture with LLC-HHD-WT1 tumor cells and Peptide SEQ ID No. 1, ELISA, average of 3 wells)	CTL counts responsive to Peptide of SEQ ID No. 1 [2]	T-cell counts responsive to Peptide SEQ ID No. 4 (helper T-cell) [3]
CCCCOc1nc(N)c2[nH]c(=O)n(Cc3ccc(CN(C)CCOCCOCCOCCOCCO)nc3)c2n1 [Example 2, 6-amino-2-butoxy-9-{[6-(16-hydroxy-2-methyl-5,8,11,14-tetraoxa-2-azahexadecan-1-yl)pyridin-3-yl]methyl}-7,9-dihydro-8H-purin-8-one-trifluoroacetate]	1.8 times	8.7 times		
CCCCOc1nc(N)c2[nH]c(=O)n(Cc3ccc(CN(C)CCOCCOCCOCCOCCO)cc3)c2n1 [Example 3, 6-amino-2-butoxy-9-{[4-(16-hydroxy-2-methyl-5,8,11,14-tetraoxa-2-azahexadecan-1-yl)phenyl]methyl}-7,9-dihydro-8H-purin-8-one]			more	more
